Measured values as given in patent US20230201188A1, “COMPOSITIONS AND METHODS FOR TREATING LEUKEMIA” (Augusta University Research Institute, Inc., priority 2020, published 2023).

Assays:
[1] = tested on: patient-derived ATL cells; assay: ATL patient-derived cell viability; assay type: cell-based; details: various concentrations, FIG. 1B
Description: (§1) HUT 102 cells and patient-derived ATL cells were treated with various concentrations of mJJ64C (Compound 17) or mJJ64 (Compound 1). Cell viability was determined.

[2] = biological target: Akt3 (Homo sapiens, UniProt Q9Y243); assay: Akt3 inhibition (no method described)
[3] = tested on: HUT102 cells; assay: HUT102 cell viability; assay type: cell-based; details: various concentrations, FIG. 1A
Description: as §1

[4] = tested on: b-cat; assay: b-cat gene expression in HUT102 cells (RT-PCR); assay type: cell-based; details: at 2 uM and above, FIG. 2
Description: (§2) HUT102 cells were treated with different concentrations of Compound 17 (0.5 uM, 1 uM, 2 uM and 4 uM). Expression of b-cat, c-myc, and survivin were evaluated using RT-PCR.

[5] = tested on: c-myc; assay: c-myc gene expression in HUT102 cells (RT-PCR); assay type: cell-based; details: at 2 uM and above, FIG. 2
Description: as §2

[6] = tested on: survivin; assay: survivin gene expression in HUT102 cells (RT-PCR); assay type: cell-based; details: at 2 uM and above, FIG. 2
Description: as §2

Chain of Akt3 (Q9Y243 whole entry): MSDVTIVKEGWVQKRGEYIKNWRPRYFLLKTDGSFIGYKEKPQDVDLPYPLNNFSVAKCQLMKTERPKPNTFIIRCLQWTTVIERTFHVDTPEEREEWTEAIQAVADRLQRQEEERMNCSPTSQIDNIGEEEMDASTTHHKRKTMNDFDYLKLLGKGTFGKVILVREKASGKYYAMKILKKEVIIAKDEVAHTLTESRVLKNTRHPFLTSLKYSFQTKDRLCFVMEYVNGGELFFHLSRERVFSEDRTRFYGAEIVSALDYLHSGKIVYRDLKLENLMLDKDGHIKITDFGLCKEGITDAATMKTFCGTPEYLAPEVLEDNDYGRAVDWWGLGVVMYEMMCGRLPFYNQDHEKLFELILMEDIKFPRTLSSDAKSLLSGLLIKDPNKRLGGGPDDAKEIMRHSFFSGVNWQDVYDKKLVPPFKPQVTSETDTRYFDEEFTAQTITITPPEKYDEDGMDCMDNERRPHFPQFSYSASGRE

## O=C(Nc1ccc(Nc2ccncc2)cc1)c1ccc(Nc2ccnc3ccc([N+](=O)[O-])cc23)cc1 [Compound 1, 4-[(6-nitroquinolin-4-yl)amino]-N-[4-(pyridin-4-ylamino)phenyl]benzamide]
[1]
  cell viability: reduce cell viability
[2]
  Akt3 activity: selectively inhibits Akt3 activity

## O=C(O)c1ccc2nccc(Nc3ccc(C(=O)Nc4ccc(Nc5ccncc5)cc4)cc3)c2c1 [Compound 18]
[3]
  cell viability: reduce cell viability

## O=C(Nc1cccc(Nc2ccncc2)c1)c1cccc(Nc2ccnc3ccc(F)cc23)c1 [Compound 17]
[4]
  expression of b-cat: significantly inhibits
[5]
  expression of c-myc: significantly inhibits
[6]
  expression of survivin: significantly inhibits
